19 compounds from ChEMBL document CHEMBL5108009, “Positron Emission Tomography (PET) Imaging Tracers for Serotonin Receptors” (J Med Chem, 2022) can be followed below.

Series [1] is described as follows: Drug biodistribution in rat brain incubated for 30 mins by autoradiographic analysis. Type of series: ADME, organism-based. Particulars: in vivo, 0.5 h.
Series [2] is filed under the species Macaca mulatta. As to the kind of experiment: Binding affinity to rhesus monkey dorsal anterior cingulate cortex 5-HT1A. The format is tissue-based. Particulars: filed as antagonist, tested as the 18F-labelled form.
The species entered for series [3] is Macaca mulatta. As to the kind of experiment: Binding affinity to rhesus monkey mesial temporal cingulate cortex 5-HT1A. Type of series: tissue-based. Particulars: filed as antagonist, tested as the 18F-labelled form.
A short description of series [4]: Lipophilicity, logD of the compound at pH 7.4. Particulars: buffer. The format is physicochemical.
The target in series [5] is T1, 5-hydroxytryptamine receptor 1A (Homo sapiens, UniProt P08908).
T1 sequence (P08908 whole entry): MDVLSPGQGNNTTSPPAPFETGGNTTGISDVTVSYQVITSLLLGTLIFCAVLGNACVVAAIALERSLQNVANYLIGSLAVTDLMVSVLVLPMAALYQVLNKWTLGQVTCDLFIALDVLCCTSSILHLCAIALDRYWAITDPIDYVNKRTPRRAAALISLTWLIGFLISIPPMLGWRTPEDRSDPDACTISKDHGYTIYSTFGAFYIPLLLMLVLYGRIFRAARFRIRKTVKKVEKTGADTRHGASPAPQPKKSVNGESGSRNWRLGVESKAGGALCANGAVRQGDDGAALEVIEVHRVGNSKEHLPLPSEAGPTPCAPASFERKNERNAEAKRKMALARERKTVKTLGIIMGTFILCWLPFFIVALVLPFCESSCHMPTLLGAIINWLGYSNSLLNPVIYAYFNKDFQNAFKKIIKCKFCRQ

Series [6] in a line: Ratio of drug uptake in rhesus monkey temporal cortex to cerebellum assessed as non-displaceable binding potential. Particulars: in vivo. Type of series: ADME, tissue-based, Macaca mulatta.
Series [7] has as its target T2, 5-hydroxytryptamine receptor 1A (Rattus norvegicus, UniProt P19327).
T2 sequence (P19327 whole entry): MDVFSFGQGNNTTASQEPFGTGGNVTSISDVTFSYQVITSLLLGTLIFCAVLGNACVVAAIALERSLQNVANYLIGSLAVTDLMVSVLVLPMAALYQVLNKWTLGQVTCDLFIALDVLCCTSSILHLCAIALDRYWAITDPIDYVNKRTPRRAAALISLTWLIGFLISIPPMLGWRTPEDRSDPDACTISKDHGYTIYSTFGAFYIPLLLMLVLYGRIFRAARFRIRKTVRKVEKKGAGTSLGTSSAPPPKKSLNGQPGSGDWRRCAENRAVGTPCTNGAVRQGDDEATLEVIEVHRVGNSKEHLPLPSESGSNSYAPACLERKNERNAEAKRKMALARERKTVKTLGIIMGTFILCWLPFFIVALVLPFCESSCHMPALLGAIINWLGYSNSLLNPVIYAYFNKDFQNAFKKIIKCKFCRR
Kind of series: Displacement of [3H]-8-OH-DPAT from Sprague-Dawley rat hippocampal membrane 5HT1A receptor incubated for 10 mins by liquid scintillation analysis. Type of series: cell membranes, Hippocampus.

In series [8] the target is 5-hydroxytryptamine receptor 1D (Homo sapiens, UniProt P28221). Kind of series: Binding affinity to 5-HT1D receptor (unknown origin) assessed as inhibition constant.
Sequence of 5-hydroxytryptamine receptor 1D (P28221 whole entry): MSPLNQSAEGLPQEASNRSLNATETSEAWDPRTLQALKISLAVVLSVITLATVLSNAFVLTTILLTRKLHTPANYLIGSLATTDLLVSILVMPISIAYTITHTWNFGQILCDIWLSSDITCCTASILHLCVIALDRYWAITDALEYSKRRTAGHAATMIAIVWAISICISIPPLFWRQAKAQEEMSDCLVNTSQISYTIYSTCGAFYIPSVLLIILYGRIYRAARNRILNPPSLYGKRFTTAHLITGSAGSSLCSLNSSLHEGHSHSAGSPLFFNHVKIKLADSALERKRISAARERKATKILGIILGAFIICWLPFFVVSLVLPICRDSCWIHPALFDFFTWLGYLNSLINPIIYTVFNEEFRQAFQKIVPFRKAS
The target in series [9] is 5-hydroxytryptamine receptor 2B (Homo sapiens, UniProt P41595). As to the kind of experiment: Binding affinity to 5-HT2B receptor (unknown origin) assessed as inhibition constant.
Sequence of 5-hydroxytryptamine receptor 2B (P41595 whole entry): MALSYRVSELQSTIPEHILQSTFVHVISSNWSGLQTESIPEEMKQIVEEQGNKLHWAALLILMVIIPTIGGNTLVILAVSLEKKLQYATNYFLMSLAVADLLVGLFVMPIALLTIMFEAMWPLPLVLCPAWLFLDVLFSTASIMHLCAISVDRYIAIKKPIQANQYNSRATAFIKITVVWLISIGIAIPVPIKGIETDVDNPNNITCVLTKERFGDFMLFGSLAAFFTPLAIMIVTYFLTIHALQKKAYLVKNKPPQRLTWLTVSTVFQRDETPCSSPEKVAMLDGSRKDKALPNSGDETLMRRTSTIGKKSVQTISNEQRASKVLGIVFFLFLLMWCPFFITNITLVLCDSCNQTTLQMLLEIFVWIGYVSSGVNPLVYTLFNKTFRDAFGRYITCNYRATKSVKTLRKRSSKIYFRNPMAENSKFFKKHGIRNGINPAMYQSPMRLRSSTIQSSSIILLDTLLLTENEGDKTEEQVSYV
For series [10], the target named is 5-hydroxytryptamine receptor 7 (Homo sapiens, UniProt P34969). Kind of series: Binding affinity to human recombinant 5-HT7 receptor assessed as inhibition constant.
Sequence of 5-hydroxytryptamine receptor 7 (P34969 whole entry): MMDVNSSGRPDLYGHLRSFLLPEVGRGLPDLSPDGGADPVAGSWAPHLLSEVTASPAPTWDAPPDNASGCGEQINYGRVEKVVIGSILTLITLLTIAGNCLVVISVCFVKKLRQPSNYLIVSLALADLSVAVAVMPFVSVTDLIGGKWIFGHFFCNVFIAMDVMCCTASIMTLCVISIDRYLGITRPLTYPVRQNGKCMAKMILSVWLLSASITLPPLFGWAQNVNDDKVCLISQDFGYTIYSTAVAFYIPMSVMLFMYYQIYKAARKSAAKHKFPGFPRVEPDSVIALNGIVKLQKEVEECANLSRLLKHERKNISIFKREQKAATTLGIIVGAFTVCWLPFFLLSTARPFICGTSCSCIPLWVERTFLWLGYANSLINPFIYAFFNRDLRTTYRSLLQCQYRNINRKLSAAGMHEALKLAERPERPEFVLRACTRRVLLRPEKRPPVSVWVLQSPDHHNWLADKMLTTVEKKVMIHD
Series [11] deals with Serotonin 3 (5-HT3) receptor.
Description: Inhibition of 5HT3 receptor (unknown origin)
Series [12] is described as follows: Ratio of drug uptake in rat temporal cortex to cerebellum by measuring radioactivity at 10 mins postinjection. Type of series: ADME, organism-based. Particulars: in vivo.
A short description of series [13]: Ratio of drug uptake in rat temporal cortex to cerebellum by measuring radioactivity at 20 mins postinjection. Type of series: ADME, organism-based. Particulars: in vivo.
Series [14] in a line: Displacement of [3H]-8-OH-DPAT from bovine hippocampal tissue 5HT1A receptor by competitive binding assay. Type of series: tissue-based, Bos taurus, Hippocampus. Background: In a radioligand displacement assay an active substance lowers the binding of a labelled ligand.
The nature of series [15]: Ratio of drug uptake in rat hippocampus to cerebellum by measuring radioactivity at […], iv. The format is ADME, tissue-based. Particulars: in vivo, dose 25-30 mCi.
Series [16] deals with 5-hydroxytryptamine receptor 2A (Rattus norvegicus, UniProt P14842). Kind of series: Binding affinity to Wistar rat cortex membrane homogenate 5-HT2A receptor incubated for 90 mins by liquid scintillation counter analysis. The format is cell membranes.
Sequence of 5-hydroxytryptamine receptor 2A (P14842 whole entry): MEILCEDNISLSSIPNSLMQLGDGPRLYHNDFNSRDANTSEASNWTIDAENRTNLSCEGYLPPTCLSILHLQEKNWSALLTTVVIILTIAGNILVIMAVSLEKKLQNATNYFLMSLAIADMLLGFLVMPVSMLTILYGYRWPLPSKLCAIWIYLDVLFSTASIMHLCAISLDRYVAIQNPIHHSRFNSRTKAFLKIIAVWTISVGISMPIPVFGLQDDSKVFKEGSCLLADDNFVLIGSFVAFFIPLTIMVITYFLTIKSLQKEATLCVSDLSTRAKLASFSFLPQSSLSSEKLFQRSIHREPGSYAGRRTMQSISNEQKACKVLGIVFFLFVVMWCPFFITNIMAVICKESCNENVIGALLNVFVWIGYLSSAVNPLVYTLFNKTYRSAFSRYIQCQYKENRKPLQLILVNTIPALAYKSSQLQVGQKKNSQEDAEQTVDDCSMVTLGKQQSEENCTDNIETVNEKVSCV
The nature of series [17]: Drug uptake in rat brain. Type of series: ADME, tissue-based. The following applies: in vivo.
Series [18] is described as follows: Drug metabolism in monkey plasma assessed as unchanged compound at 120 mins postinjection relative to control. Type of series: ADME, organism-based, Macaca mulatta. The following applies: rhesus monkey, read-out: Stability.
The nature of series [19]: Drug uptake in cynomolgus monkey brain treated with WAY-100635 followed by compound 878 Ci/mmol, iv measured at 2.5 mins postinjection by PET imaging relative to control. The format is ADME, organism-based, Macaca fascicularis. Particulars: in vivo.
A short description of series [20]: Drug uptake in cynomolgus monkey brain treated with WAY-100635 followed by compound 230 Ci/mmol, iv measured at 2.5 mins postinjection by PET imaging relative to control. Type of series: ADME, organism-based, Macaca fascicularis. The following applies: in vivo.

Structures are written as SMILES.

For the compound `[O-][S+](c1ccc([18F])cc1)C1CCN(CCc2ccc(F)cc2F)CC1` (stereo not drawn), the Drug uptake in series [1] is reported as 30%.

For the compound `COc1ccccc1N1CCN(CCN(c2ccccn2)C(=O)[C@H]2CC[C@H](CF)CC2)CC1`, the Bmax in the series listed under Macaca mulatta [2] turned out to be 36 pmol/mL; in the series listed under Macaca mulatta [3], 42 pmol/mL.

What is called logD is the decadic logarithm of the distribution of all forms, ionised or not, between an organic phase and buffer at a given pH. In [4], `CC1(NC(=O)c2ccc(N)cc2)CCN(CCCOc2ccc([18F])cc2)CC1` displayed a logD of 2.53.

What is called Ki is a dissociation constant, usually derived from enzyme kinetics or from competition with a known ligand. `COc1ccccc1N1CCN(CCN(c2ccccn2)C(=O)[C@H]2CC[C@H](C[18F])CC2)CC1`: the affinity in [5] corresponds to a Ki of 0.9 nM. Moreover, in series [6], the Ratio is given as 7.7.

In series [7], `Cc1ccc2c(c1O)-c1cccc3c1C(C2)N(C)CC3` (stereo not drawn) came in with a Ki of 0.45 nM.

Turning to `COc1ccccc1N1CCN(CC[C@@H](C(=O)N2CCCCCC2)c2ccccc2)CC1`, the figures for the Ki in series [5], in series [8] and in series [9] were 0.6 nM, 9.5 nM and 7.2 nM, respectively.

As for `COc1cccc(N2CCN(CCCCC3C(=O)Nc4ccccc43)CC2)c1` (stereo not drawn), in series [10], the Ki was 2.6 nM.

What is called IC50 is the concentration needed to halve the response being measured. The compound `COc1cn2cccc2c(N2CCN(Cc3ccc(F)cc3)CC2)n1` came in with an IC50 in series [11] of 6.6 nM.

On to `COc1ccccc1N1CCN(CCN(c2cccc(F)n2)[11C](=O)N2CCCCC2)CC1`, for which the Ratio stood at 1.9 in [12] and 3 in series [13].

Turning to `[11CH3]O[C@H]1CC[C@@H](C(=O)N(CCN2CCN(c3ccccc3O)CC2)c2ccccn2)CC1`, the Ki in [14] was found to be 24 nM.

For the compound `O=C(C1CCCCC1)N(CCN1CCN(c2ccccc2OCC[18F])CC1)c1ccccn1`, the Ratio in [15] came out at 5.5.

Take `[O-][S+](c1ccc(F)cc1)C1CCN(CCc2ccc(F)cc2F)CC1` (stereo not drawn): in series [16], affinity was put at a Ki of 198 nM.

`COc1ccc2cccc(N3CCN(CCNC(=O)c4ccc([18F])cc4)CC3)c2c1` came in with an inhibitory constant (Ki) in series [5] of 0.98 nM. Further, the SUV in [17] is given as 2.

For the compound `CN1CCN(c2cc(F)cc3c(=O)cc(C(=O)Nc4ccc(N5CCOCC5)c([18F])c4)oc23)CC1`, the remaining at 2 h in [18] is greater than 40%.

For `CC1(C(=O)N(CCN2CCN(c3ccccc3O[11CH3])CC2)c2ccccn2)CCCCC1`, in series [5], the Ki was 2.3 nM. The compound also yielded a Drug uptake in [19] of 3%.

In turn, `CN1CCN(c2ccc3ccccc3n2)CC1` came in with an IC50 in series [11] of 4.7 nM.

On to `NC(=O)c1ccc(F)c2c1CC(N(C1CCC1)C1CCC1)CO2` (stereo not drawn), for which, in [5], the inhibition constant (Ki) is 0.6 nM. In series [4], this compound showed a logD of 2.5.

Compound `COc1ccccc1N1CCN(CC(C)N(c2ccccn2)[11C](=O)C2CCCCC2)CC1` (racemic) returned a Ki in series [5] of 0.91 nM. Further, in series [20], the Drug uptake was 4.8%.

The compound `O=S(=O)(c1ccc([18F])cc1)C1CCN(CCc2ccc(F)cc2F)CC1` returned a Drug uptake in series [1] greater than 80%.
